The values that follow are results of earlier work, collected in patent US20050009793A1, “Treatment of liver disease with active vitamin D compounds” (Novacea, Inc., priority 2002, published 2005).

For the data set the following is noted: in vivo.

As for `C=C1/C(=C\C=C2/CCC[C@]3(C)C([C@H](C)CC#CC(C)(C)O)=CC[C@@H]23)C[C@@H](O)C[C@@H]1O` [Ro23-7553], the “Hypercalcemic effect compared to calcitriol” value is “reduced hypercalcemic effect”.

In the case of `C=C1/C(=C/C=C2\CCC[C@]3(C)C([C@H](C)CC#CC(O)(C(F)(F)F)C(F)(F)F)=CC[C@@H]23)C[C@@H](O)C[C@@H]1O` [Ro24-5531], the “Hypercalcemic effect compared to calcitriol” value is “reduced hypercalcemic effect”.
